The values below are quoted from earlier work in patent US6027728A, “Herbal skin regeneration composition and method” (priority 1998, dated 2000).

One series relates to Na+,K(+)-ATPase.
Conditions: not given
In the case of `C[C@]12C[C@@H](O)[C@@H]3C[C@@]1(O[C@@H]1O[C@H](CO)[C@@H](O)[C@H](O)[C@H]1O)[C@@]3(COC(=O)c1ccccc1)C(=O)O2` [albiflorin], the “inhibition of Na+,K(+)-ATPase activity (in words)” value (from here on “inhibition … (in words)”) is given as “ineffective”.
As for `O=C(O)c1ccccc1` [benzoic acid], the “inhibition … (in words)” value is “weakly inhibitory”.
Take `Oc1cc(O)c2c(c1)OC(c1ccc(O)c(O)c1)C(O)C2` (stereo not drawn) [catechin]: the “inhibition … (in words)” value is listed as “weakly inhibitory”.
Take `C[C@@]12C[C@@]3(O)O[C@@H](O1)[C@]1(COC(=O)c4ccccc4)[C@H]3C[C@@]12O[C@@H]1O[C@H](COC(=O)c2cc(O)c(O)c(O)c2)[C@@H](O)[C@H](O)[C@H]1O` [galloylpaeoniflorin]: the “inhibition … (in words)” value is “weakly inhibitory”.
As to `C[C@@]12C[C@@]3(O)O[C@@H](O1)[C@]1(COC(=O)c4ccc(O)cc4)[C@H]3C[C@@]12O[C@@H]1O[C@H](CO)[C@@H](O)[C@H](O)[C@H]1O` [oxypaeoniflorin], the “inhibition … (in words)” value is listed as “ineffective”.
Turning to `COc1ccc(C(C)=O)c(O)c1` [paconol], the “inhibition … (in words)” value is recorded as “ineffective”.
In the case of `C[C@@]12C[C@@]3(O)O[C@@H](O1)[C@]1(COC(=O)c4ccccc4)[C@H]3C[C@@]12O[C@@H]1O[C@H](CO)[C@@H](O)[C@H](O)[C@H]1O` [paeoniflorin], the “inhibition … (in words)” value is given as “ineffective”.
On to `Oc1ccccc1` [phenol], for which the “inhibition … (in words)” value is given as “ineffective”.

Staying with this series, now noted: with respect to ATP.
Turning to `O=C(OC[C@H]1O[C@@H](OC(=O)c2cc(O)c(O)c(O)c2)[C@H](OC(=O)c2cc(O)c(O)c(O)c2)[C@@H](OC(=O)c2cc(O)c(O)c(O)c2)[C@@H]1OC(=O)c1cc(O)c(O)c(O)c1)c1cc(O)c(O)c(O)c1` [PGG, 1,2,3,4,6-Penta-O-galloyl-beta-D-glucose], the “inhibition mode with respect to ATP” value is recorded as “noncompetitive”.
